The text below walks through data of patent US20140205670A1, “STABLE SOLID PREPARATIONS” (TAKEDA PHARMACEUTICAL COMPANY LIMITED, priority 2002, published 2014).

The series is described as follows: Stability Test of Amorphous Lansoprazole R-Isomer (compatibility with basic substances, appearance change). To be noted: blending ratio A/base 1/1 (1/0 for No Addition). It counts as physicochemical. As for the experimental part: (1) 100 mg of amorphous lansoprazole R-isomer was weighed precisely under low humidity environment, and put in a transparent glass bottle. Subsequently, 100 mg of basic substance as a stabilizer of basic inorganic salt shown below was weighed precisely under low humidity environment, and placed in the bottle containing amorphous lansoprazole R-isomer. Then, the bottle was capped, and shaken slightly with hand to mix.
[1] magnesium carbonate MgCO3 [2] calcium carbonate CaCO3 [3] magnesium oxide MgO [4] magnesium hydroxide Mg (OH)2 [5] no basic substance (2) The prepared samples were stored under the condition of 40° C./75% RH (open) for 5 days. Color tones were named and color codes were numbered based on International Color Manual so as to estimate the appearance change of samples everyday. At the end of experiment, the stability was judged by comparing the color tone with that of the sample stored at 5° C. as initial sample. In addition, A represents amorphous lansoprazole R-isomer in Table 2.

Regarding `Cc1c(OCC(F)(F)F)ccnc1C[S@@+]([O-])c1nc2ccccc2[nH]1` [No Addition], the “color tone, Storage conditions initial (5° C. 5 days)” value (100 mg amorphous lansoprazole R-isomer (A) + 100 mg basic substance, stored at 5° C. as initial sample) was “pale greenish”. For the same compound, for the setting “40° C./75% RH (open), 5 days”, the “appearance change after 40° C./75% RH 5 days compared with initial sample (5° C.)” value is given as “(changed)” and the “color tone, Storage conditions 40° C./75% RH 5 days” value was “pale yellow”.
